Data set [1] concerns the target T1, recombinant human CSE (hCSE) (Homo sapiens, UniProt P32929).
T1 construct: purchased ProteoGenix, France
Kind of data set: High-throughput screening pyruvate assay for CSE activators. It counts as biochemical. The conditions noted are these: 5 μM; % of pyruvate generated over hCSE alone. The protocol:
The chemical reactions involved in the 2 step assay are depicted. In (a) recombinant human CSE (hCSE) is incubated with L-cysteine, generating H2S and pyruvate. In (b) pyruvate is oxidized by pyruvate oxidase (PDX) to generate acetate, carbon dioxide (CO2) and hydrogen peroxide (H2O2). H2O2 then reacts with Amplex Red in a 1:1 stoichiometry to form the red fluorescent product, resorufin. (c) hCSE-dependent pyruvate measurement without enzyme (no pyruvate production), with the specific CSE inhibitor AVG 5 μM (inhibition of pyruvate production) and with the CSE activator calmodulin 5 μM (increased pyruvate production). Results were expressed as the % of pyruvate generated over hCSE alone. (d) Chemical structure of the new small molecule CSE activator SU004. (e) CSE-dependent pyruvate upon incubation of hCSE with L-cysteine and with increasing concentration of SU004. The ability of SU004 to activate hCSE was calculated as % of normalized activity.
We therefore hypothesized that potential CSE activators could counter these effects and be of therapeutic value in musculoskeletal HC. We set up a screening assay with human recombinant CSE (hCSE) and L-Cysteine as substrate, using as read-out the production of pyruvate as a surrogate of H2S production. As expected, pyruvate was detected only in presence of hCSE. […]

For data set [2], the target named is recombinant human CSE (Homo sapiens, UniProt P32929). In words: CSE activity (AzMC probe assay), H2S production by recombinant human CSE. It counts as biochemical. As for the experimental part:
The activity of recombinant human CSE (rCSE) was tested in the presence of C5, compound 8 (50 uM), Z20 compound 13 (50 uM) or vehicle (DMSO). Briefly, compounds were added in reaction buffer (50 mM Tris-HCl, pH 8) containing 2 μg of rCSE, 10 mM CSE substrate L-cysteine, 5 uM pyridoxal 5′-phosphate (PLP). After addition of 10 μM of the H2S sensitive fluorescent probe 7-azido-4-methylcoumarin (AzMC) in a total volume of 100 μl, fluorescence was immediately measured in kinetic mode for 2 h at 37° C. with SpectraMax M5 reader, with excitation and emission wavelengths of 365 nm and 450 nm, respectively. Statistical analysis was determined using simple linear regression with p<0.0001 for C5 vs. vehicle and p<0.0002 for Z20 vs. vehicle.
Recombinant human CSE (1 μg/well) was incubated with various concentrations of compounds (all in final 0.1% DMSO), or with 0.1% DMSO as a control, in 10 mM sodium phosphate buffer pH 8.2. Next, 10 mM L-cysteine and 1 mM PLP and 10 μM of the probe AzMC were then added to reach 100 μL total volume. Fluorescence was measured for 3 h at 37° C. with excitation and emission wavelengths of 365 nm and 450 nm, respectively, in a 96-well half area black plate with transparent bottom.
Dose-response curve of each compound was performed, using triplicate wells for each tested doses. The background (10 mM sodium phosphate buffer with L-cysteine, PLP and AzMC) was subtracted from all values. Each mean value was converted to percent activity (0% defined as the smallest mean in each data set, 100% defined as the highest mean in each data set). The data were normalized using the four parameter logistic model (4PL) equation to calculate EC50 using GraphPad Prism.

In data set [3] the test system is MOVAS cells. Kind of data set: Cytotoxicity assay, LDH release. It counts as cell-based, mouse. The conditions noted are these: at 20 uM. The protocol: A) Alizarin red staining of MOVAS cells stimulated with CPP for 24 h in DMEM+10% FBS in presence of different concentrations of compound 22401. […] The background (Alizarin red staining obtained with cells in the absence of CPP) was subtracted from all values. B) Percentage of cytotoxicity, as measured by LDH release, in MOVAS cells in the same conditions as A). Statistical analysis was determined using one-way ANOVA with *p<0.05, **p<0.01, ***p<0.001.
Measurement of lactate dehydrogenase (LDH) as a means of cytotoxicity assay was performed with using CytoTox-ONE Homogeneous Membrane Integrity Assay (Promega) according to the manufacturer's instructions. Values were calculated as percentage of cytotoxicity using the following formula: [(value in sample)−(background)]/[(value in Triton X-100-treated sample)−(background)]×100.

The test system of data set [4] is MOVAS cells. In words: MOVAS cell calcification assay (Alizarin red). The class given is cell-based, mouse. The conditions noted are these: Mus musculus, MOVAS; at 20 uM; read-out: Calcification assay Max calcification inhibition (%) at the indicated dose of compound. As for the experimental part: A) Alizarin red staining of MOVAS cells stimulated with sCPP for 24 h in DMEM+10% FBS and treated or not with 50 uM of compounds. […] Statistical analysis was determined using one-way ANOVA with ***p<0.001. C) Percentage of cytotoxicity (LDH %) in MOVAS treated or not with compounds for 24 h. D) MOVAS cells were seeded onto half-area 96-well plate and incubated overnight. Then C5 or C6 at 50 uM or vehicle (DMSO), L-cysteine at 10 mM, PLP at 5 uM and the H2S sensitive fluorescent probe AzMC at 10 μM were added. The fluorescence was immediately measured in kinetic mode for 2 h at 37° C. with SpectraMax M5 reader, with excitation and emission wavelengths of 365 nm and 450 nm, respectively.
A) Alizarin red staining of Movas cells stimulated with sCPP for 24 h in DMEM+10% FBS and treated or not with 50 uM of Z20. […] C) Percentage of cytotoxicity (LDH %) in murine chondrocytes treated or not with Z20 for 24 h. Statistical analysis was determined using one-way ANOVA with ***p<0.001.
Alizarin red staining of MOVAS cells stimulated with sCPP for 24 h in DMEM+10% FBS and treated or not with different concentrations of compounds (A: C6) and (B: Z20). The graphs show Alizarin red absorbance at 570-630 nm. Statistical analysis was determined using one-way ANOVA with *p<0.05, **p<0.01, ***p<0.001.
CPP were generated by preparing 20 ml DMEM containing 10% FBS, 1 mmol/L CaCl2, 3.5 mmol/L inorganic phosphate (1.36 mmol/L NaH2PO4 and 2.14 mmol/L Na2HPO4) (Aghagolzadeh et al. Atherosclerosis, 2016). After 7 days incubation at 37° C., the suspension was centrifuged at 25000 g for 2 h at 4° C., and the pellet containing CPP was resuspended in 1 ml DMEM and stored at −20° C. until further use.
Mouse vascular smooth muscle cell line (MOVAS) cells were cultured according to the manufacturer's guidelines in DMEM culture medium supplemented with 10% FBS. Cells were cultured at 37° C. in a humidified atmosphere with 5% CO2. All cell culture experiments in 96-well plates were performed in triplicates and were repeated independently two times.
For calcification experiments, cells were seeded in 96-well plates at a density of 50,000 cells/well and left to attach for 18 h. Calcification of cell monolayers was induced by CPP (equivalent to 50 μg Ca/mL) for 24 h at 37° C., 5% CO2 in presence of various concentrations of compounds (all in final 0.1% DMSO), or of 0.1% DMSO as a control, to reach a final volume of 200 μl/well. Calcium deposition was assessed by 0.5% w/v Alizarin Red staining (pH 4.2). Briefly, after PBS washing, methanol fixation for 10 min at 4° C., and milli-Q water washing, cells were incubated for 60 min with 200 μL Alizarin Red solution and then washed four times with milli-Q water. Quantification was performed after crystal dissolution with cetylpyridinium chloride (10%) for 18 h. The absorbance was measured at 570 and 630 nm using the Spectramax M5e reader (Molecular Devices). The background (alizarin red staining obtained with cells in the absence of CPP) was subtracted from all values.

Data set [5] concerns WT murine primary chondrocytes. Kind of data set: Murine primary chondrocyte calcification (Alizarin red). The class given is cell-based, mouse. The settings on record: WT chondrocytes incubated with 100 μM or 25 μM. The protocol:
(a) WT and Cse-deficient chondrocytes were incubated with a CSE activator (SU004, 50 μM) previously identified by high-through put screen, or with the equivalent volume of DMSO (0.1%) for 24 hours in calcification medium. STS 25 mM was used as a positive control for calcification inhibition. Calcium-containing crystals were stained with Alizarin red and quantified. (b) Cytotoxicity was assessed by LDH measurement and expressed as % over 100% cytotoxicity. (c) IL-6 secretion was measured by ELISA in supernatant of WT chondrocytes incubated with SU004 50 μM or STS 25 mM for 24 hours in calcification medium. (d) Primary human chondrocytes from 3 OA patients (P1, P2, P3) were incubated with SU004 50 μM, or with the equivalent volume of DMSO (0.1%) for 24 hours in calcification medium. Calcium-containing crystals were stained with Alizarin red and quantified. (e) Cytotoxicity was assessed by LDH measurement and expressed as % over 100% cytotoxicity. (f) IL-6 secretion was measured by ELISA in supernatant of human chondrocytes incubated for 24 hours with SU004 50 μM in calcification medium. *p<0.05, ** p<0.01, ****p<0.0001.
Primary murine chondrocytes were stimulated with secondary calciprotein particles (sCPP) for 24 h in DMEM+10% FBS in presence of C5 or C6 at 50 uM or vehicle (DMSO). Mineralization was analyzed by Alizarin red staining of the cells (A) and quantified (B). Statistical analysis was determined using one-way ANOVA with **p<0.01 and ***p<0.001.
Chondrocytes were isolated from 6 days old mice (Cse KO, Cse tg, Cbs KO and corresponding WT mice) as described previously (Nasi, So, et al. 2016). Tenocytes were isolated from 6 to 8 weeks old mice (Cse KO and WT) and by double digestion in Collagenase IV NB standard grade (Witec AG). […]
After incubation in calcification media, supernatant was collected for ELISA and LDH measurement, and cell monolayer was washed in PBS, fixed in 10% formol and crystal deposition analyzed through Alizarin red staining and quantified as previously described

T1 sequence (P32929 whole entry): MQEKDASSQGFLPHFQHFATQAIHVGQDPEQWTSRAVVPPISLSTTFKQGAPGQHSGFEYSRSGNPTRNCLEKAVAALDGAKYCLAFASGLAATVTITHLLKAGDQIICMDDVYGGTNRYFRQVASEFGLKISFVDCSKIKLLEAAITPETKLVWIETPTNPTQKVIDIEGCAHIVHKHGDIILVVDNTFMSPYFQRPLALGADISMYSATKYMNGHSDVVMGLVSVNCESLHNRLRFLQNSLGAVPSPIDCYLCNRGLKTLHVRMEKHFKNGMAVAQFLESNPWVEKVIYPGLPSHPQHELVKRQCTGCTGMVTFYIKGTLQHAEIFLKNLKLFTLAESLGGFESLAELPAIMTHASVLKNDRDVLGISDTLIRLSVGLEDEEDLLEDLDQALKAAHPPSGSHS
Sequence of recombinant human CSE (P32929 whole entry): as above

As for `NCCO/C=C/C(N)C(=O)O` (stereo not shown) [AVG], in data set [1], the hCSE-dependent pyruvate production result is “almost complete inhibition”.
As to `CCn1cnc2c(Nc3cnn(CCOC)c3)ncnc21` [Compound 47, 9-ethyl-N-(1-(2-methoxyethyl)-1H-pyrazol-4-yl)-9H-purin-6-amine], the “CSE activity (AZMC probe assay) % of activation” value in data set [2] ((RFU compound max - RFU compound 0/RFU CSE 2 ug - RFU compound 0)*100) came out at 106%. For the same molecule, the EC50 in data set [2] (EC50 calculated by the four-parameter logistic model) is 38.9 nM. Also, in data set [3], the “Cytotoxicity assay LDH release (% of cytotoxicity)” value stood at 25% at. The inhibition at 20 µM in data set [4] is 37%.
As for `N[C@@H](CCS)C(=O)O` [homocysteine, reference compound], the Calcification result in data set [5] is given as “significantly decreased”.
As to calmodulin, the hCSE-dependent pyruvate production entry in data set [1] was “pyruvate up-modulation”.
